Reference: patent US10781185B2, “Heterocyclic compounds for the inhibition of PASK” (BioEnergenix LLC, priority 2009, dated 2020)
pIC50: −log10 of the molar value.

Target: PASK (Homo sapiens (Human), UniProt Q96RG2)
Assay: PAS Kinase FRET Assay
Format: biochemical
Details: TR-FRET, Ulight-peptide substrate; read-out: IC50 Kinase Domain
Text: PAS Kinase FRET Assay The aim of the FRET assay is to determine the inhibition potential of test compounds on targeted kinase. This assay platform provides a homogenous screening method for measuring kinase activity by quantitating the amount of phospho-substrate in solution following a kinase reaction. In the presence of kinase and ATP, the Ulight-peptide is phosphorylated and captured by an anti-phospho-substrate antibody, which brings the Eu chelate donor and Ulight acceptor dyes into close proximity. […] The contents of the plate were and incubated at RT for 1 h. The reaction was stopped by adding 5 μl of stop solution to each test well followed by mixing and incubation at RT for 10 minutes. 5 μl of detection mix (detection antibody diluted in detection buffer) was added; the contents of the plate were mixed and then incubated in the dark for 1 hour at RT. […] The results were graphed to calculate the EC50. Titration of ATP at the EC50 concentration of kinase to determine ATP Km,app. was performed using the following method. […] The contents of the plate were and incubated at RT for 1 h. The reaction was stopped by adding 5 μl of stop solution to each test well followed by mixing and incubation at RT for 10 minutes. 5 μl of detection mix (detection antibody diluted in detection buffer) was added; the contents of the plate were mixed and then incubated in the dark for 1 hour at RT. […] The results were graphed to calculate the EC50 as the ATP Km,app. […] If compound is not soluble under this condition, it was diluted to 3 mM. Kinase reaction buffer was prepared containing 10 mM MgCl2, 50 mM HEPES, 1 mM EGTA, 0.01% TWEEN-20, 2 mM DTT. […] As a positive control, 2.5 μl of positive compound was added to assay wells, and 2.5 μl of DMSO to assay wells as vehicle control. Kinase solution was prepared in reaction buffer at 2× final assay concentration. Kinase solution (5 μl) was added to each well of the assay plate. The substrate and ATP solution was prepared in kinase reaction buffer at 4× final assay concentration. The kinase reaction was started by adding 2.5 μl of substrate+ATP mix solution to each well of the assay plate. The plate is mixed on a plate shaker; then covered and allowed to react for 2 hours in the dark at 25° C. without shaking. The reaction was stopped by adding 5 μl of stop solution to each test well followed by mixing and incubation at RT for 10 minutes in the dark. 5 μl of detection mix (detection antibody diluted in detection buffer) was added; the contents of the plate were mixed and then incubated in the dark for 1 hour at RT.

Sequence of PASK (Q96RG2 999-1251): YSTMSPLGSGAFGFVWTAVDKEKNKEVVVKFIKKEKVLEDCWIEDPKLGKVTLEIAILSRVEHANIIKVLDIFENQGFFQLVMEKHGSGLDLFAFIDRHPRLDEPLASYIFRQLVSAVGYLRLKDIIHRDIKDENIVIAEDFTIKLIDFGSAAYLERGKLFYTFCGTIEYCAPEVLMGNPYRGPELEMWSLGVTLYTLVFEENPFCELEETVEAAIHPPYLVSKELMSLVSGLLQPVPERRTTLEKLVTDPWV

SMILES	pIC50
CC(C)N(C)c1nc2cc(C(=O)O)ccc2nc1-c1ccc(C#N)cc1 [Example 86, 2-(4-Cyanophenyl)-3-(isopropyl(methyl)amino)quinoxaline-6-carboxylic acid]	≥ 5.00
CC(C)N(C)c1nc2cc(C(=O)O)ccc2nc1-c1cccc(F)c1 [Example 70, 2-(3-Fluorophenyl)-3-(isopropyl(methyl)amino)quinoxaline-6-carboxylic acid]	≥ 5.00
CC(C)N(C)c1nc2cc(C(=O)O)ccc2nc1-c1ccc(S(C)(=O)=O)cc1 [Example 82, 3-(Isopropyl(methyl)amino)-2-(4-(methylsulfonyl)phenyl)quinoxaline-6-carboxylic acid]	≤ 5.00
CN(c1nc2cc(C(=O)O)ccc2nc1-c1ccc(F)cc1)C1CC1 [Example 92, 3-(Cyclopropyl(methyl)amino)-2-(4-fluorophenyl)quinoxaline-6-carboxylic acid]	≥ 5.00
O=C(O)c1ccc2nc(-c3ccccc3)c(NCCc3ccccc3)nc2c1 [Example 41, 3-(Phenethylamino)-2-phenylquinoxaline-6-carboxylic acid]	≥ 5.00
COC[C@H]1CCCN1c1nc2cc(C(=O)O)ccc2nc1-c1ccc(F)cc1 [Example 93, (R)-2-(4-Fluorophenyl)-3-(2-(methoxymethyl)pyrrolidin-1-yl)quinoxaline-6-carboxylic acid]	≥ 5.00
CC(C)N(C)c1nc2cc(C(=O)O)ccc2nc1-c1ccco1 [Example 98, 2-(Furan-2-yl)-3-(isopropyl(methyl)amino)quinoxaline-6-carboxylic acid]	≥ 5.00
O=C(O)c1ccc2nc(-c3ccccc3)c(N3CCc4ccccc43)nc2c1 [Example 67, 3-(Indolin-1-yl)-2-phenylquinoxaline-6-carboxylic acid]	≥ 5.00
CN(c1ccccc1)C1CCN(c2nc3cc(C(=O)O)ccc3nc2-c2ccccc2)CC1 [Example 35, 3-(4-(Methyl(phenyl)amino)piperidin-1-yl)-2-phenylquinoxaline-6-carboxylic acid]	≥ 5.00
CN(c1nc2cc(C(=O)O)ccc2nc1-c1ccc(F)cc1)C1CCOCC1 [Example 105, 2-(4-Fluorophenyl)-3-(methyl(tetrahydro-2H-pyran-4-yl)amino)quinoxaline-6-carboxylic acid]	≥ 5.00
C[C@H]1CCCCN1c1nc2cc(C(=O)O)ccc2nc1-c1ccc(F)cc1 [Example 91, (S)-2-(4-Fluorophenyl)-3-(2-methylpiperidin-1-yl)quinoxaline-6-carboxylic acid]	≥ 5.00
CC(C)N(C)c1nc2cc(C(=O)O)ccc2nc1-c1cccs1 [Example 108, 3-(Isopropyl(methyl)amino)-2-(thiophen-2-yl)quinoxaline-6-carboxylic acid]	≥ 5.00
CC(C)N(C)c1nc2cc(C(=O)O)ccc2nc1-c1cccnc1 [Example 97, 3-(Isopropyl(methyl)amino)-2-(pyridin-3-yl)quinoxaline-6-carboxylic acid]	≥ 5.00
CC(C)N(C)c1nc2cc(C(=O)O)ccc2nc1-c1ccc(OC(F)(F)F)cc1 [Example 85, 3-(Isopropyl(methyl)amino)-2-(4-(trifluoromethoxy)phenyl)quinoxaline-6-carboxylic acid]	≥ 5.00
CN(CCc1ccccc1)c1nc2cc(C(=O)O)ccc2nc1-c1ccccc1 [Example 42, 3-(Methyl(phenethyl)amino)-2-phenylquinoxaline-6-carboxylic acid]	≥ 5.00
C[C@@H](c1ccccc1)N(C)c1nc2cc(C(=O)O)ccc2nc1-c1ccccc1 [Example 60, (S)-3-(Methyl(1-phenylethyl)amino)-2-phenylquinoxaline-6-carboxylic acid]	≥ 5.00
O=C(O)c1ccc2nc(-c3ccccc3)c(N3CCOc4ccccc43)nc2c1 [Example 68, 3-(2,3-Dihydrobenzo[b][1,4]oxazin-4-yl)-2-phenylquinoxaline-6-carboxylic acid]	≥ 5.00
O=C(O)c1ccc2nc(-c3ccccc3)c(NC3CCCCC3)nc2c1 [Example 44, 3-(Cyclohexylamino)-2-phenylquinoxaline-6-carboxylic acid]	≥ 5.00
COc1cccc(-c2nc3ccc(C(=O)O)cc3nc2N(C)C(C)C)c1 [Example 69, 3-(Isopropyl(methyl)amino)-2-(3-methoxyphenyl)quinoxaline-6-carboxylic acid]	≥ 5.00
CN(c1nc2cc(C(=O)O)ccc2nc1-c1ccc(F)cc1)C1CCCC1 [Example 106, 3-(Cyclopentyl(methyl)amino)-2-(4-fluorophenyl)quinoxaline-6-carboxylic acid]	≥ 5.00
CC(C)N(C)c1nc2cc(C(=O)O)ccc2nc1-c1ccccc1F [Example 71, 2-(2-Fluorophenyl)-3-(isopropyl(methyl)amino)quinoxaline-6-carboxylic acid]	≥ 5.00
Cc1ccc(-c2nc3ccc(C(=O)O)cc3nc2N(C)C(C)C)s1 [Example 107, 3-(Isopropyl(methyl)amino)-2-(5-methylthiophen-2-yl)quinoxaline-6-carboxylic acid]	≥ 5.00

Now from value to compound:

pIC50	SMILES
≥ 5.00	O=C(O)c1ccc2nc(-c3ccccc3)c(-n3ccc4ccccc43)nc2c1 [Example 62, 3-(1H-Indol-1-yl)-2-phenylquinoxaline-6-carboxylic acid]
≤ 5.00	O=C(O)c1ccc2nc(-c3ccccc3)c(N3CCS(=O)(=O)CC3)nc2c1 [Example 102, 3-(1,1-Dioxidothiomorpholino)-2-phenylquinoxaline-6-carboxylic acid]
≥ 5.00	CC(=O)NC1CCN(c2nc3cc(C(=O)O)ccc3nc2-c2ccccc2)CC1 [Example 37, 3-(4-Acetamidopiperidin-1-yl)-2-phenylquinoxaline-6-carboxylic acid]
≥ 5.00	CN1CCN(c2nc3cc(C(=O)O)ccc3nc2-c2ccc(F)cc2)CC1=O [Example 112, 2-(4-Fluorophenyl)-3-(4-methyl-3-oxopiperazin-1-yl)quinoxaline-6-carboxylic acid]
≥ 5.00	O=C1CN(c2nc3cc(C(=O)O)ccc3nc2-c2ccc(F)cc2)CCN1 [Example 103, 2-(4-Fluorophenyl)-3-(3-oxopiperazin-1-yl)quinoxaline-6-carboxylic acid]
≥ 5.00	CCC(C)N(C)c1nc2cc(C(=O)O)ccc2nc1-c1ccccc1 (stereo not shown) [Example 48, 3-(sec-Butyl(methyl)amino)-2-phenylquinoxaline-6-carboxylic acid]
≥ 5.00	CC(=O)N(C)C1CCN(c2nc3cc(C(=O)O)ccc3nc2-c2ccc(F)cc2)CC1 [Example 111, 2-(4-Fluorophenyl)-3-(4-(N-methylacetamido)piperidin-1-yl)quinoxaline-6-carboxylic acid]
≥ 5.00	CC(=O)N(C)C1CCN(c2nc3cc(C(=O)O)ccc3nc2-c2ccccc2)CC1 [Example 34, 3-(4-(N-Methylacetamido)piperidin-1-yl)-2-phenylquinoxaline-6-carboxylic acid]
≥ 5.00	CC[C@@H](C)N(C)c1nc2cc(C(=O)O)ccc2nc1-c1ccccc1 [Example 61, (R)-3-(sec-Butyl(methyl)amino)-2-phenylquinoxaline-6-carboxylic acid]
≥ 5.00	O=C(O)c1ccc2nc(-c3ccccc3)c(N3CCC[C@H]3CO)nc2c1 [Example 53, (S)-3-(2-(Hydroxymethyl)pyrrolidin-1-yl)-2-phenylquinoxaline-6-carboxylic acid]
≥ 5.00	C[C@H]1CN(c2ccccn2)CCN1c1nc2cc(C(=O)O)ccc2nc1-c1ccc(F)cc1 [Example 90, (S)-2-(4-Fluorophenyl)-3-(2-methyl-4-(pyridin-2-yl)piperazin-1-yl)quinoxaline-6-carboxylic acid]
≥ 5.00	CS(=O)(=O)N1CCN(c2nc3cc(C(=O)O)ccc3nc2-c2ccccc2)CC1 [Example 33, 3-(4-(Methylsulfonyl)piperazin-1-yl)-2-phenylquinoxaline-6-carboxylic acid]
≥ 5.00	O=C(O)c1ccc2nc(-c3ccccc3)c(N3CCc4ccccc4C3)nc2c1 [Example 39, 3-(3,4-Dihydroisoquinolin-2(1H)-yl)-2-phenylquinoxaline-6-carboxylic acid]
≥ 5.00	C[C@H]1CN(c2ccccn2)CCN1c1nc2cc(C(=O)O)ccc2nc1-c1ccccc1 [Example 94, (S)-3-(2-Methyl-4-(pyridin-2-yl)piperazin-1-yl)-2-phenylquinoxaline-6-carboxylic acid]
≥ 5.00	O=C(O)c1ccc2nc(-c3ccccc3)c(N3CC[C@H](O)C3)nc2c1 [Example 50, (S)-3-(3-Hydroxypyrrolidin-1-yl)-2-phenylquinoxaline-6-carboxylic acid]
